For one test, the system named is Monkey ES cells. The test is described as follows: Cardiac differentiation of monkey ES cells (α-MHC promoter-GFP) in adhesion culture, GFP fluorescence by HCS. The conditions noted are these: for effect of promoting cardiac differentiation (GFP fluorescence): added Days 4-8 together with KYO2111 (10 µM), AG1478 20 μM, read at Day 10, FIGS. 1-3. The class given is cell-based. As to the method: At Day 10 of culture, compounds that enhanced GFP fluorescence were identified by measuring GFP fluorescence with HCS (high contents screening) system (Olympus IX81 inverted microscope and Molecular device/MetaMorph imaging system).
During Days 4-8 of culture KYO2111 (10 μM) and PP3 (3 μM, 10 μM, 30 μM, or 100 μM) were added.

A further test concerns human ES cells (KhES-3). The test is described as follows: Cardiac differentiation of human ES cells in floating culture, percentage of cTnT-positive cardiomyocytes by flow cytometry. The test is classed as cell-based. The conditions noted are these: for effect to promote cardiac differentiation in combination with XAV939 only: XAV+AG1478 or gefitinib; for effect to promote cardiac differentiation in combination with XAV939 only / effect to promote cardiac differentiation by itself: human ES or iPS cells, cell line not stated, FIG. 8; for effect to promote cardiac differentiation by itself: without addition of KYO2111 and XAV939. As to the method: (§1) Human ES cells or iPS cells subcultured with mouse feeder cells were collected. Colonies of the human ES cells or iPS cells (3-10×10^6 cells/well) were plated on 6-well plates of Ultra-low culture dish (CORNING 3261), and cultured in an IMDM-based medium having a defined composition (IMDM (Sigma) containing 1% MEM non-essential amino acid solution (Sigma), 1% penicillin-streptomycin (Gibco), 2 mM L-glutamine (Sigma), 0.5 mM L-carnitine (Sigma), 0.001% 2-mercaptoethanol (Gibco), and 0.4% human serum albumin (Sigma)) in floating culture for 30 days (FIG. 5). During Days 0-2 of culture (for 2 days), CHIR99021 (Axon) (4 μM) and BIO (Calbiochem) (1 μM) were added, and during Days 3-9 of culture (for 6 days) KYO2111 (10 μM) and XAV939 (1 μM) were added. […] The cardiac differentiation was evaluated by analyzing the percentage of cardiomyocytes with flow cytometry using an antibody against cardiac troponin T (cTnT), a specific marker of cardiac muscle at Day 30 of culture.

Test [1] deals with human iPS cells (IMR90-1). The test is described as follows: Cardiac differentiation of human iPS cells in floating culture, percentage of cTnT-positive cardiomyocytes by flow cytometry. The test is classed as cell-based. The conditions noted are these: 5-20 μM added Days 2-9 of culture, FIG. 7. As to the method: as §1
The next test has as its system Human iPS cells (253G1). The test is described as follows: Cardiac differentiation of human iPS cells in feeder-free sphere culture, cTnT flow cytometry. The class given is cell-based. The following applies: 10 μM Days 3-9 in addition to KYO2111 (10 μM) and XAV939 (1 μM); Day 30; increased from 34% without EGFR inhibitor; FIG. 9. As to the method: Human iPS cells (253G1) were cultured in sphere culture without feeder cells (feeder-free sphere culture). In detail, 253G1 cells subcultured with mouse feeder cells were collected, the cell cluster was passed through […] (CellTrics, PARTEC04004-2327) to give uniform cell clusters having the size of 80-120 μm, the cells were plated in 6-well plates of Ultra-low culture dish (CORNING 3261) and cultured in mTeSR1 medium (Stem Cell Technology 05850) containing 3% methylcellulose (R&D, HSC001) in floating culture until the size of the colonies of the iPS cells arrived at about 200-300 μm. The cells were subcultured more than 20 times by repeating the steps of this feeder-free sphere culture. The medium was replaced with an IMDM-based medium having a defined composition (IMDM (Sigma) containing 1% MEM non-essential amino acid solution (Sigma), 1% penicillin-streptomycin (Gibco), 2 mM L-glutamine (Sigma), 0.5 mM L-carnitine (Sigma), 0.001% 2-mercaptoethanol (Gibco), and 0.4% human serum albumin (Sigma)) and the cells were cultured in floating culture for 30 days (FIG. 5). […] The cardiac differentiation was evaluated by analyzing the percentage of cardiomyocytes with flow cytometry using an antibody against cardiac troponin T (cTnT), a specific marker of cardiac muscle at Day 30 of culture.
(In general: A flow cytometer gives signals particle by particle.)

The target in another test is Src kinase (Homo sapiens, UniProt P12931). The following applies: cited from earlier work.
Chain of Src kinase (P12931 whole entry): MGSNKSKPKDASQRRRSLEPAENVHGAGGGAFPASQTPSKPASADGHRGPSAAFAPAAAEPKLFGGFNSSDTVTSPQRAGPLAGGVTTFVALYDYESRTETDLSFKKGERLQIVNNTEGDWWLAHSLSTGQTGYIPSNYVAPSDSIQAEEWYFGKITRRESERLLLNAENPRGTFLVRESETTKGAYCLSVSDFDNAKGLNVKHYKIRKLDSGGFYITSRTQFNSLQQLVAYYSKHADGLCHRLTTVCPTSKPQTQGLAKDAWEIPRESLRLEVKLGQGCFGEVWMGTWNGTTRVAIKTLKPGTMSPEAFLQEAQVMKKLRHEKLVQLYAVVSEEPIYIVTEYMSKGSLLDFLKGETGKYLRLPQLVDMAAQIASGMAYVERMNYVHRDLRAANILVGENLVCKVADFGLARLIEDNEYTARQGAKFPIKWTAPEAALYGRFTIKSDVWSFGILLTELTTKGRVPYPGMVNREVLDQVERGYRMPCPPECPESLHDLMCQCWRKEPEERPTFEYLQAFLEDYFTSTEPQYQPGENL
A short description of test [2]: Effect to promote cardiac differentiation by the methods of WO2012/026491. The conditions noted are these: methods described in the Examples of WO2012/026491. The test is classed as cell-based. The source says:
The effect of SO3031 (KY01-I), SO2031 (KY02-I), SO3042 (KY03-I), and SO2077 to promote cardiac differentiation was confirmed by the methods described in the Examples of WO2012/026491.

Here are results for seven compounds from US10196609B2, “Composition for promoting cardiac differentiation of pluripotent stem cell comprising EGFR inhibitor” (Kyoto University, priority 2013, dated 2019).

`COc1cc2ncnc(Nc3cccc(Cl)c3)c2cc1OC` [AG1478]: in the test with Monkey ES cells (Wnt signaling inhibitor KYO2111 added together, FIG. 4), the “synergistic promotion of cardiac differentiation with KYO2111” value is on record as “synergistically promoted cardiac differentiation”. For the same compound, the “synergistic promotion of cardiac differentiation with XAV939” value in the test on Monkey ES cells (Wnt signaling inhibitor XAV939 added together, FIG. 4) was “synergistically promoted cardiac differentiation”. The “effect of promoting cardiac differentiation (GFP fluorescence)” value in the test on Monkey ES cells is given as “had the effect of promoting cardiac differentiation”. In addition, the percentage of cardiomyocytes in the test on human ES cells (KhES-3) (20 μM, Days 2-9, stated for human ES (KhES-3) and iPS (IMR90-1) cells together, Day 30, FIG. 7) is listed as 92-95%; with Human iPS cells (253G1), “about 50%”. The cardiac differentiation efficiency result was “the cardiac differentiation efficiency was increased” in the test on human ES cells (KhES-3) (5-20 μM added Days 2-9 of culture, KhES-3, FIG. 7) and “the cardiac differentiation efficiency was increased” in test [1]. Besides, in the test on human ES cells (KhES-3), the “effect to promote cardiac differentiation in combination with XAV939 only” value is “produced an effect to promote cardiac differentiation”. The “effect to promote cardiac differentiation by itself” value in the test with human ES cells (KhES-3) is on record as “produced an effect to promote cardiac differentiation”.
Take `Nc1ncnc2c1cnn2-c1ccccc1` [PP3]: in the test on Monkey ES cells (PP3 3, 10, 30 or 100 μM with KYO2111 (10 μM), Days 4-8, FIG. 10), the “enhancement of the effect of KYO2111 to promote cardiac differentiation” value is given as “enhance the effect of KYO2111 to promote cardiac differentiation”. The “inhibitory effect on Src kinase” value at Src kinase is “no inhibitory effect”.
For the compound `COc1ccc(CCC(=O)Nc2nc3ccc(I)cc3s2)cc1OC` [SO2031, 2-(3-(3,4-dimethoxyphenyl)propanamide)-6-iodobenzothiazole], in test [2], the “effect to promote cardiac differentiation” value is “confirmed”.
The same measure, in the same setting: as for `CCCOc1ccc(CCC(=O)Nc2nc3ccc(I)cc3s2)cc1OC` [SO2077, 2-(3-(3-methoxy-4-propoxyphenyl)propanamide)-6-iodobenzothiazole], the entry is “confirmed”; as for `COc1ccc(CC(=O)Nc2nc3ccc(I)cc3s2)cc1OC` [SO3031, 2-(2-(3,4-dimethoxyphenyl)acetamide)-6-iodobenzothiazole], “confirmed”; as for `COc1ccc(CCCC(=O)Nc2nc3ccc(I)cc3s2)cc1OC` [SO3042, 2-(4-(3,4-dimethoxyphenyl)butanamide)-6-iodobenzothiazole], “confirmed”.
In the case of `COc1cc2ncnc(Nc3ccc(F)c(Cl)c3)c2cc1OCCCN1CCOCC1` [gefitinib], in the test on Monkey ES cells, the “effect of promoting cardiac differentiation (GFP fluorescence)” value is listed as “have the effect of promoting cardiac differentiation”. Moreover, the “promotion of cardiac differentiation” value in the test with human ES cells (KhES-3) (10 μM added Days 0-2 of culture, with CHIR99021+BIO Days 0-2, KYO2111+XAV939 Days 3-9, Day 30, FIG. 6) is “did not promote cardiac differentiation”. Moreover, in the test on human ES cells (KhES-3), the “effect to promote cardiac differentiation in combination with XAV939 only” value was “produced an effect to promote cardiac differentiation” and the “effect to promote cardiac differentiation by itself” value was “produced an effect to promote cardiac differentiation”. Further, in the test on Human iPS cells (253G1), the percentage of cardiomyocytes entry is “about 50%”.
